{"source": "patent US6369042B1", "about": "“Antioxidative vitamin B6 analogs” (priority 1999, dated 2002)", "tested_on": "Rhinovirus infection", "assay": "Treatment of a rhinovirus infection (common cold) in a patient", "format": "in vivo, human", "conditions": "50 mg orally in a water solution, after 15 minutes", "method": "A patient with a common katarrhalic infection (common cold) was treated orally with 50 mg of (2RS,4R)-2-[3-Hydroxy-5-(hydroxymethyl)-2-methyl-4-pyridinyl]-4-thiazolidine carboxylic acid in a water solution. After 15 minutes the disease symptoms disappeared."}
{"smiles": "Cc1ncc(CO)c(C2N[C@H](C(=O)O)CS2)c1O", "note": "(mixture of isomers) [(2RS,4R)-2-[3-Hydroxy-5-(hydroxymethyl)-2-methyl-4-pyridinyl]-4-thiazolidine carboxylic acid]", "values": [{"measurement": "disease symptoms of common katarrhalic infection (common cold)", "result": "disappeared"}]}
